In ChEMBL document CHEMBL1128784, “Symmetry-based HIV Protease inhibitors: rational design of 2-methylbenzamides as novel P2/P2 ligands” (Bioorg Med Chem Lett, 1995):

Molecular target: Human immunodeficiency virus type 1 protease (Human immunodeficiency virus 1, UniProt Q72874)
Assay: Inhibitory activity against HIV protease

Row | Structure (SMILES) | Ki
1 | Cc1c(N)cccc1C(=O)N[C@@H](Cc1ccccc1)[C@H](O)[C@H](O)[C@H](Cc1ccccc1)NC(=O)c1cccc(N)c1C | 0.0025 µM
2 | Cc1ccc(O)cc1C(=O)N[C@@H](Cc1ccccc1)[C@H](O)[C@H](O)[C@H](Cc1ccccc1)NC(=O)c1cc(O)ccc1C | 0.074 µM
